5 compounds from patent publication US7723372B2, “Spiroindolinone derivatives” (Hoffman-La Roche Inc., priority 2008, dated 2010) can be followed below.

Broadly, the IC50 is the point on the concentration scale where inhibition reaches its midpoint.

Sequence of interaction between p53 and MDM2 proteins (recombinant GST-tagged MDM2, biotinylated p53 peptide) (Q00987 whole entry): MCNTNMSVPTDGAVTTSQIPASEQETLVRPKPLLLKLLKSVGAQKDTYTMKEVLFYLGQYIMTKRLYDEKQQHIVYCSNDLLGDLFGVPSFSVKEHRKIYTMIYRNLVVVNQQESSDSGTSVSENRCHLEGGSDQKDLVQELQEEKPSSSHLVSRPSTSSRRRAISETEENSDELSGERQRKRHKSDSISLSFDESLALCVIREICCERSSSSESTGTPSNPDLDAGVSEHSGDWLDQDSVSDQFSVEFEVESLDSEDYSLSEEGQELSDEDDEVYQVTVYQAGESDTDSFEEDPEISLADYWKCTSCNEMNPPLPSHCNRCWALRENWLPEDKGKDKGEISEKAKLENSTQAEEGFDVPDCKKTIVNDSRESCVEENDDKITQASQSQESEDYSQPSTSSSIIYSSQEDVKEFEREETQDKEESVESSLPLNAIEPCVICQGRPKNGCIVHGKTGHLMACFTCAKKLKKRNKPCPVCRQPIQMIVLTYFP

For this test, the target named is interaction between p53 and MDM2 proteins (recombinant GST-tagged MDM2, biotinylated p53 peptide) (Homo sapiens, UniProt Q00987). The test can be described thus: HTRF assay of inhibition of the p53-MDM2 interaction. As to conditions: 0.02% BSA. The class given is binding. Here is the method:
The ability of the compounds to inhibit the interaction between p53 and MDM2 proteins was measured by an HTRF (homogeneous time-resolved fluorescence) assay in which recombinant GST-tagged MDM2 binds to a peptide that resembles the MDM2-interacting region of p53 (Lane et al.), Binding of GST-MDM2 protein and p53-peptide (biotinylated on its N-terminal end) is registered by the FRET (fluorescence resonance energy transfer) between Europium (Eu)-labeled ant-GST antibody and streptavidin-conjugated Allophycocyanin (APC).
[…] Add 10 uL diluted compounds (1:5 dilution in reaction buffer) to each well, mix by shaking. Add 20 uL biotinylated p53 peptide (180 nM working solution) in reaction buffer to each well and mix on shaker. Incubate at 37° C. for 1 h. Add 20 uL streptavidin-APC and Eu-anti-GST antibody mixture (6 nM Eu-anti-GST and 60 nM streptavidin-APC working solution) in TBS buffer with 0.2% BSA, shake at room temperature for 30 minutes and read using a TRF-capable plate reader at 665 and 615 nm (Victor 5, Perkin ElmerWallac). If not specified, the reagents were purchased from Sigma Chemical Co.
In general terms: In TR-FRET formats the signal depends on donor and acceptor labels being close together.
In the case of `Cc1ccc(F)cc1C1=C[C@@]2(C(=O)Nc3cc(Cl)ccc32)[C@H](c2cccc(Cl)c2)C[C@@H]1O` (racemic) [Example 5, rac-(1R, 4S, 6S)-6′-chloro-6-(3-chlorophenyl)-3-(5-fluoro-2-methylphenyl)-4-hydroxyspiro[2-cyclohexene-1,3′-[3H]indol]-2′(1′H)-one], the concentration for half-maximal inhibition (IC50) turned out to be 1.6 µM.

As for `C/C=C/C1=CC(=O)C[C@@H](c2cccc(Cl)c2)[C@]12C(=O)Nc1cc(Cl)ccc12` (racemic) [Example 10 (Compound B), rac-(1S,6S)-6′-chloro-6-(3-chlorophenyl)-2-(E)-(1-propenyl)spiro[2-cyclohexene-1,3′-[3H]indole]-2′,4(1′H)-dione], the IC50 is 5.9 µM.

Regarding `O=C1C[C@@H](c2cccc(Cl)c2)[C@@]2(C=C1c1cc(F)ccc1O)C(=O)Nc1cc(Cl)ccc12` (racemic) [Example 17, rac-(1R,6S)-6′-chloro-6-(3-chlorophenyl)-3-(5-fluoro-2-hydroxyphenyl)spiro[2-cyclohexene-1,3′-[3H]indole]-2′,4(1′H)-dione], the IC50 was found to be 1.66 µM.

As for `O=C1C[C@@H](c2cccc(Cl)c2)[C@@]2(C=C1c1ccc(F)cc1O)C(=O)Nc1cc(Cl)ccc12` (racemic) [Example 18, rac-(1R,6S)-6′-chloro-6-(3-chlorophenyl)-3-(4-fluoro-2-hydroxyphenyl)spiro[2-cyclohexene-1,3′-[3H]indole]-2′,4(1′H)-dione], the IC50 is 2.99 µM.

For `C=Cc1ccccc1C1=CC(=O)C[C@@H](c2cccc(Cl)c2)[C@]12C(=O)Nc1cc(Cl)ccc12` (racemic) [Example 44 (Compound A), rac-(1R,6S)-6′-chloro-6-(3-chlorophenyl)-2-(2-ethylenephenyl)spiro[2-cyclohexene-1,3′-[3H]indole]-2′,4(1′H)-dione], the IC50 came to 1.39 µM.
